Results published in patent publication US9957271B2, “Substituted bicyclic aza-heterocycles and analogues as sirtuin modulators” (GlaxoSmithKline, LLC, priority 2012, dated 2018).

What was measured:
[1] = molecular target: T1, SIRT1 (Homo sapiens, UniProt Q96EB6); assay: Trp mass spectrometry assay of SIRT1 activity; type: biochemical; settings: for Emax: read-out: Trp % Fold Act
T1 sequence (Q96EB6 1-747): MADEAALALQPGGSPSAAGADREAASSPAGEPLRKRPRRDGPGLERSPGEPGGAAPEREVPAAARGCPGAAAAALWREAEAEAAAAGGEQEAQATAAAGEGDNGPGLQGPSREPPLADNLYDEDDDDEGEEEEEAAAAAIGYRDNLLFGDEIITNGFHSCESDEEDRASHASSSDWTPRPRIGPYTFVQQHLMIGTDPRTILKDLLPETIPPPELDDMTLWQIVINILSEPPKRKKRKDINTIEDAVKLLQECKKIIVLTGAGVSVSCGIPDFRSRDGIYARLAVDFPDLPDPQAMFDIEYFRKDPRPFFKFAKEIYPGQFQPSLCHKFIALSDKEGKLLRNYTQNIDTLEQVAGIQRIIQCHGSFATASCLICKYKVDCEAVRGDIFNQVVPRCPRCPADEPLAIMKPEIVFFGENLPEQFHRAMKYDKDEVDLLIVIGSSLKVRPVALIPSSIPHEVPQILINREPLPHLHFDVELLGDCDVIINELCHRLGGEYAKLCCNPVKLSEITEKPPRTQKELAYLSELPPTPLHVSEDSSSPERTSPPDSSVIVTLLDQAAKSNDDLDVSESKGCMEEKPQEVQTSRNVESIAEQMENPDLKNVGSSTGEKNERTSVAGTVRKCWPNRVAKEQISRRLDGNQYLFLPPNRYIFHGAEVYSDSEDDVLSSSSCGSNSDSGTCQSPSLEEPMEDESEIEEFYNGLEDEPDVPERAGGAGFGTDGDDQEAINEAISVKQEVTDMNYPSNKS
Procedure, shortened: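 Activation readout: EC1.5 (concentration raising activity 50% over control) and percent maximum activation, from mass-spec quantitation of OAADPR or deacetylated Trp peptide. Reaction: 0.5 μM acetylated Trp peptide, 120 μM βNAD+, 10 nM bacterially expressed N-His SIRT1, pH 7.5 HEPES buffer with […], 25 min at 25° C.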

[2] = molecular target: T1, SIRT1; assay: TAMRA based mass spectrometry assay of SIRT1 activity; type: biochemical; settings: for Emax: read-out: TAMRA % Fold Act
Procedure, shortened: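 Deacetylation of a biotinylated, TAMRA-tagged p53-based peptide (0.5 μM) by 10 nM His-tagged SIRT1 with 120 μM βNAD+, 25 °C for 25 min, pH 8 Tris-acetate buffer, across a compound concentration range. Quenched by formic acid and read by mass spec as product peptide or OAADPR; activity relative to DMSO reactions, nicotinamide defining maximal inhibition.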

[3] = Trp peptide substrate, concentration giving 150% activation of SIRT1
[4] = Trp peptide substrate, percent maximum fold activation
[5] = TAMRA peptide substrate, concentration giving 150% activation of SIRT1
[6] = TAMRA peptide substrate, percent maximum fold activation
[7] = Trp assay, concentration giving 150% activation of SIRT1
[8] = Trp assay, percent maximum fold activation
[9] = TAMRA assay, concentration giving 150% activation of SIRT1
[10] = TAMRA assay, percent maximum fold activation
[11] = concentration of test compound giving 150% activation of SIRT1, Trp peptide substrate
[12] = percent maximum fold activation of SIRT1, Trp peptide substrate
[13] = concentration of test compound giving 150% activation of SIRT1, TAMRA peptide substrate
[14] = percent maximum fold activation of SIRT1, TAMRA peptide substrate

Compound | Trp EC1.5 [1, 3] | Emax [1, 4] | TAMRA EC1.5 [2, 5] | Emax [2, 6] | Trp EC1.5 (μM) [1, 7] | Emax [1, 8] | TAMRA EC1.5 (μM) [2, 9] | Emax [2, 10] | also measured
COc1cccc(NC(=O)c2cnn3ccc(-c4ccccc4C(F)(F)F)nc23)n1 [Compound 486] | A (EC1.5<1 μM) | ≥ 350% | A (EC1.5<1 μM) | ≥ 350% | – | – | – | – | –
Cc1cncc(NC(=O)c2c(C)nn3ccc(-c4ccccc4C(F)(F)F)nc23)n1 [Compound 737] | – | – | – | – | A (EC1.5<1 μM) | ≥ 350% | A (EC1.5<1 μM) | ≥ 350% | –
O=C(Nc1cnn2ccc(-c3ccccc3OC(F)(F)F)nc12)c1cnccn1 [Compound 584] | C (EC1.5>25 μM) | < 350% | B (EC1.5 1-25 μM) | ≥ 350% | – | – | – | – | –
Cc1cc(C)nc(NC(=O)c2cnc3c(C)c(C)c(-c4ccccc4Cl)nn23)c1 [Compound 230] | – | – | – | – | C (EC1.5>25 μM) | < 350% | A (EC1.5<1 μM) | ≥ 350% | –
Cc1cc(C)nc(C(=O)Nc2cnc3ccc(N4CC[C@H](F)C4)nn23)c1 [Compound 566] | B (EC1.5 1-25 μM) | < 350% | B (EC1.5 1-25 μM) | ≥ 350% | – | – | – | – | –
COc1cccc(NC(=O)c2cnn3ccc(-c4ccccc4OC(F)(F)F)nc23)n1 [Compound 536] | A (EC1.5<1 μM) | < 350% | A (EC1.5<1 μM) | ≥ 350% | – | – | – | – | –
Cc1ccnc(C(=O)Nc2cnn3ccc(-c4ccccc4C(F)(F)F)nc23)c1 [Compound 523] | C (EC1.5>25 μM) | < 350% | A (EC1.5<1 μM) | ≥ 350% | – | – | – | – | –
Cc1nc(C(=O)Nc2cnc3c(C)cc(-c4ccccc4C(F)(F)F)nn23)cs1 [Compound 412] | A (EC1.5<1 μM) | ≥ 350% | A (EC1.5<1 μM) | ≥ 350% | – | – | – | – | –
O=C(Nc1ncccn1)c1cnn2ccc(-c3ccccc3OC(F)(F)F)nc12 [Compound 559] | B (EC1.5 1-25 μM) | ≥ 350% | B (EC1.5 1-25 μM) | < 350% | – | – | – | – | –
Cc1nc2ccc(-c3ccccc3C(F)(F)F)nn2c1C(=O)Nc1ccncn1 [Compound 461] | B (EC1.5 1-25 μM) | ≥ 350% | A (EC1.5<1 μM) | ≥ 350% | – | – | – | – | –
Cc1nc2ccc(-c3ccccc3Cl)nn2c1NC(=O)c1ccncn1 [Compound 348] | – | – | – | – | C (EC1.5>25 μM) | < 350% | C (EC1.5>25 μM) | < 350% | –
O=C(Nc1ccnc(N2CCC2)c1)c1cnc2ccc(-c3ccccc3C(F)(F)F)nn12 [Compound 50] | – | – | – | – | – | – | – | – | Trp EC1.5 (μM) [1, 11]: A (EC1.5<1 μM); Emax [1, 12]: ≥ 350%; TAMRA EC1.5 (μM) [2, 13]: A (EC1.5<1 μM); Emax [2, 14]: ≥ 350%
Cc1nc2c(C)cc(-c3ccccc3C(F)(F)F)nn2c1C(=O)Nc1ccncc1F [Compound 473] | A (EC1.5<1 μM) | ≥ 350% | A (EC1.5<1 μM) | ≥ 350% | – | – | – | – | –
Cc1nc2ccc(-c3ccccc3OC[C@H](O)CO)nn2c1C(=O)Nc1ccccn1 [Compound 815, (R)-6-(2-(2,3-dihydroxypropoxy)phenyl)-2-methyl-N-(pyridin-2-yl)imidazo[1,2-b]pyridazine-3-carboxamide] | – | – | – | – | A (EC1.5<1 μM) | ≥ 350% | A (EC1.5<1 μM) | ≥ 350% | –
O=C(Nc1cnn2ccc(-c3ccccc3C(F)(F)F)nc12)c1cscn1 [Compound 802] | – | – | – | – | C (EC1.5>25 μM) | < 350% | B (EC1.5 1-25 μM) | ≥ 350% | –
Cc1nc(C(=O)Nc2c(C)nc3ccc(-c4ccccc4Cl)nn23)c(C)s1 [Compound 352] | – | – | – | – | C (EC1.5>25 μM) | < 350% | B (EC1.5 1-25 μM) | < 350% | –
Cc1cc(-c2ccccc2C(F)(F)F)nn2c(C(=O)Nc3ccnc(OC(C)C)n3)cnc12 [Compound 615] | – | – | – | – | A (EC1.5<1 μM) | ≥ 350% | A (EC1.5<1 μM) | ≥ 350% | –
O=C(Nc1cccc(N2CCOCC2)n1)c1cnc2ccc(-c3ccc(F)c(F)c3F)nn12 [Compound 126] | – | – | – | – | – | – | – | – | Trp EC1.5 (μM) [1, 11]: B (EC1.5 1-25 μM); Emax [1, 12]: < 350%; TAMRA EC1.5 (μM) [2, 13]: A (EC1.5<1 μM); Emax [2, 14]: < 350%
N#Cc1ccccc1-c1ccc2ncc(NC(=O)c3nccs3)n2n1 [Compound 335] | – | – | – | – | B (EC1.5 1-25 μM) | < 350% | B (EC1.5 1-25 μM) | < 350% | –
O=C(Nc1ccncc1F)c1cnn2ccc(-c3ccccc3OC(F)(F)F)nc12 [Compound 606] | – | – | – | – | A (EC1.5<1 μM) | < 350% | A (EC1.5<1 μM) | ≥ 350% | –
Cc1cnc(C(=O)Nc2cnn3ccc(-c4ccccc4C(F)(F)F)nc23)cn1 [Compound 800] | – | – | – | – | C (EC1.5>25 μM) | < 350% | B (EC1.5 1-25 μM) | ≥ 350% | –
O=C(Nc1cccc(CN2CCOCC2)n1)c1cnc2ccc(-c3c(F)cccc3F)nn12 [Compound 172] | – | – | – | – | – | – | – | – | Trp EC1.5 (μM) [1, 11]: C (EC1.5>25 μM); Emax [1, 12]: < 350%; TAMRA EC1.5 (μM) [2, 13]: B (EC1.5 1-25 μM); Emax [2, 14]: ≥ 350%
Cc1cc(-c2ccccc2C(F)(F)F)nn2c(NC(=O)c3cccc(OCC(O)CO)n3)cnc12 (stereo not shown) [Compound 427] | A (EC1.5<1 μM) | ≥ 350% | A (EC1.5<1 μM) | ≥ 350% | – | – | – | – | –
O=C(Nc1cnccc1N1CCOCC1)c1cnc2ccc(-c3ccccc3C(F)(F)F)nn12 [Compound 177] | – | – | – | – | – | – | – | – | Trp EC1.5 (μM) [1, 11]: C (EC1.5>25 μM); Emax [1, 12]: < 350%; TAMRA EC1.5 (μM) [2, 13]: C (EC1.5>25 μM); Emax [2, 14]: < 350%
Cc1ncccc1-c1ccc2ncc(C(=O)Nc3ccnc(N4CCCC4)c3)n2n1 [Compound 59] | – | – | – | – | – | – | – | – | Trp EC1.5 (μM) [1, 11]: C (EC1.5>25 μM); Emax [1, 12]: < 350%; TAMRA EC1.5 (μM) [2, 13]: B (EC1.5 1-25 μM); Emax [2, 14]: < 350%
